From patent US11091428B2 (HAPLOGEN GMBH, priority 2016, dated 2021)
pEC50, pIC50: −log10 of the molar value. Like-named read-outs stand apart in the source and are kept apart here.

Assays:
PLA2G16 = biological target: T1, PLA2G16 (Homo sapiens, UniProt P53816); test: Enzyme activity assay for PLA2G16 (Red/Green BODIPY PC-A2 fluorescence); format: biochemical; settings: His-tagged PLA2G16, 4 min pre-incubation, 2 nM to 50 μM; read-out: IC50 values of the compounds determined in the enzyme activity assay for PLA2G16
T1 construct: Hexa-His (N); made in house; host or cells: E. coli BL21(DE3)
T1 sequence (P53816 1-162): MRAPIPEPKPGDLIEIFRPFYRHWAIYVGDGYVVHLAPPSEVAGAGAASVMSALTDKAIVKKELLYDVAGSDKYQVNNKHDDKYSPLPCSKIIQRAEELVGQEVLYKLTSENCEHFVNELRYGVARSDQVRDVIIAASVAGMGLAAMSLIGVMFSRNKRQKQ
Method in brief: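 IC50 from non-linear fits of fluorescence rise (480/530 nm, 10 min) after adding Red/Green BODIPY PC-A2 mixed with DOPC/DOPG/cholesterol liposomes. Recombinant His-tagged human enzyme, bacterially expressed, was first exposed to inhibitor (2 nM–50 μM final) for 4 min in 50 mM Tris pH 8.5, 100 mM NaCl, 5 mM glutathione.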

[1] = tested on: picornaviruses (CVB1, HRV-A2, HRV-A23, EV-68); test: Anti-picornavirus cytopathic effect (CPE) reduction assay on HeLa H1 cells; format: cell-based; settings: Enterovirus B, HeLa H1 cells, 48 h, category from averaging the EC50 values from four picornaviruses (CVB1, HRV-A2, HRV-A23, EV68), read-out: EC50 values of the compounds determined in the anti-picornavirus assay
Method in brief: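 Cytopathic-effect protection: EC50 from non-linear regression of cell viability (CellTiterBlue, 560/590 nm) 48 h post-infection, scaled between infected and mock-infected vehicle wells. Compound dilutions added to HeLa H1 cells 2 h before virus (MOI causing complete CPE within 2 days), in DMEM + 2% FBS; categories average the four viruses.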

Compound	pIC50 (PLA2G16)	pEC50 ([1]; HeLa H1, 48 h)	pEC50 ([1]; CVB1|EV68|HRVA2|HRVA23, HeLa H1, 48 h)
O=C(NCC1(CO)CC1)C(=O)C1CCC(=O)N1Cc1ccc(Cl)cc1 (centres unmarked) [FP 276, 2-{1-[(4-Chlorophenyl)methyl]-5-oxopyrrolidin-2-yl}-N-{[1-(hydroxymethyl)cyclopropyl]-methyl}-2-oxoacetamide]	> 6.00	5.00 to 6.00	–
CCC(=O)N(C)C(C)C(=O)C(=O)NCC1CCCCC1 (centres unmarked) [FP 145, N-(Cyclohexylmethyl)-3-(N-methylpropanamido)-2-oxobutanamide]	> 6.00	5.00 to 6.00	–
Cc1ccccc1C(=O)N[C@H](C)C(=O)C(=O)NCC1CC1 (single isomer, unassigned) [FP 158]	> 6.00	5.00 to 6.00	–
O=CN(Cc1ccccc1)[C@@H](Cc1c[nH]cn1)C(=O)C(=O)NCC1CC1 [FP 119, (3S)-3-(N-Benzylformamido)-N-(cyclopropylmethyl)-4-(1H-imidazol-4-yl)-2-oxobutanamide]	> 6.00	< 5.00	–
CCCC(C(=O)C(=O)NCC1CC1)N(C=O)CC1CCOCC1 (centres unmarked) [FP 58, N-(Cyclopropylmethyl)-3-{N-[(oxan-4-yl)methyl]formamido}-2-oxohexanamide]	> 6.00	5.00 to 6.00	–
CC(NC(=O)c1cccc(Cl)c1)C(=O)C(=O)NCC1CC1 (centres unmarked) [FP 172, 3-[(3-Chlorophenyl)formamido]-N-(cyclopropylmethyl)-2-oxobutanamide]	> 6.00	5.00 to 6.00	–
CC(OCC(C)(C)C)C(=O)C(=O)NCC1CC1 (centres unmarked) [FP 122, N-(Cyclopropylmethyl)-3-(2,2-dimethylpropoxy)-2-oxobutanamide]	5.00 to 6.00	5.00 to 6.00	–
CC(C)CC(=O)N1CC(NC(=O)C(=O)[C@H]2CCC(=O)N2Cc2ccccc2)C1 [FP 317, 2-[(2R)-1-Benzyl-5-oxopyrrolidin-2-yl]-N-[1-(3-methylbutanoyl)azetidin-3-yl]-2-oxoacetamide]	> 6.00	5.00 to 6.00	–
CC(C)NC(=O)C(=O)C(C)N(C=O)CC(C)(C)C (centres unmarked) [FP 29, 3-[N-(2,2-Dimethylpropyl)formamido]-2-oxo-N-(propan-2-yl)butanamide]	> 6.00	5.00 to 6.00	–
CNC(=O)C(=O)C1N(Cc2ccccc2)C(=O)CC12CC2 (centres unmarked) [FP 347, 2-{5-Benzyl-6-oxo-5-azaspiro[2.4]heptan-4-yl}-N-methyl-2-oxoacetamide]	> 6.00	> 6.00	–
COc1ccccc1OC(C)C(=O)C(=O)NCc1cccc(Cl)c1 (centres unmarked) [FP 133, N-[(3-Chlorophenyl)methyl]-3-(2-methoxyphenoxy)-2-oxobutanamide]	> 6.00	5.00 to 6.00	–
CC(C(=O)C(=O)NCC1CCCCC1)N(C=O)CC1CCOCC1 (centres unmarked) [FP 49, N-(Cyclohexylmethyl)-3-{N-[(oxan-4-yl)methyl]formamido}-2-oxobutanamide]	> 6.00	> 6.00	–
CC(C)C(C(=O)C(N)=O)N(C=O)Cc1ccccc1 (centres unmarked) [FP 198, 3-(N-Benzylformamido)-4-methyl-2-oxopentanamide]	5.00 to 6.00	< 5.00	–
COc1ccccc1N(C=O)C(C)C(=O)C(=O)NCc1cnccn1 (centres unmarked) [FP 104, 3-[N-(2-Methoxyphenyl)formamido]-2-oxo-N-[(pyrazin-2-yl)methyl]butanamide]	5.00 to 6.00	< 5.00	–
COc1ccccc1N(C=O)C(C)C(=O)C(=O)NCc1cccnc1 (centres unmarked) [FP 89, 3-[N-(2-Methoxyphenyl)formamido]-2-oxo-A[(pyridin-3-yl)methyl]butanamide]	> 6.00	< 5.00	–
O=C(NCC(F)F)C(=O)[C@H]1CCC(=O)N1Cc1ccccc1 [FP 266, 2-[(2R)-1-Benzyl-5-oxopyrrolidin-2-yl]-N-(2,2-difluoroethyl)-2-oxoacetamide]	> 6.00	> 6.00	–
CC(C(=O)C(=O)NCC1CCCCC1)N(C=O)CC1CC1 (centres unmarked) [FP 51, N-(Cyclohexylmethyl)-3-[N-(cyclopropylmethyl)formamido]-2-oxobutanamide]	> 6.00	5.00 to 6.00	–

Compound	pIC50 (PLA2G16)	pEC50 ([1]; HeLa H1, 48 h)	pEC50 ([1]; CVB1|EV68|HRVA2|HRVA23, HeLa H1, 48 h)
N#Cc1ccc(CN2C(=O)CCC2C(=O)C(=O)NCC2CC2)cc1 (centres unmarked) [FP 233, 2-{1-[(4-Cyanophenyl)methyl]-5-oxopyrrolidin-2-yl}-N-(cyclopropylmethyl)-2-oxoacetamide]	> 6.00	5.00 to 6.00	–
O=C(N[C@@H]1CCCCNC1=O)C(=O)[C@H]1CCC(=O)N1Cc1ccccc1 [FP 300, 2-[(2R)-1-Benzyl-5-oxopyrrolidin-2-yl]-2-oxo-N-[(3R)-2-oxoazepan-3-yl]acetamide]	> 6.00	5.00 to 6.00	–
CC(C)CNC(=O)C(=O)C(C)N(C=O)CC(F)(F)F (centres unmarked) [FP 46, N-(2-Methylpropyl)-2-oxo-3-[N-(2,2,2-trifluoroethyl)formamido]butanamide]	> 6.00	5.00 to 6.00	–
CC(C(=O)C(=O)NCC1CCCCC1)N(C)C(=O)C1CC1 (centres unmarked) [FP 146, N-(Cyclohexylmethyl)-3-(1-cyclopropyl-N-methylformamido)-2-oxobutanamide]	> 6.00	5.00 to 6.00	–
O=C(NCC1CC1)C(=O)[C@H]1CCC(=O)N1Cc1ccccc1 [FP 224, 2-[(2R)-1-Benzyl-5-oxopyrrolidin-2-yl]-N-(cyclopropylmethyl)-2-oxoacetamide]	> 6.00	> 6.00	–
O=C(NCCCc1ccncc1)C(=O)C1CCC(=O)N1Cc1ccccc1 (centres unmarked) [FP 228, 2-(1-Benzyl-5-oxopyrrolidin-2-yl)-2-oxo-N-[3-(pyridin-4-yl)propyl]acetamide]	> 6.00	5.00 to 6.00	–
COc1ccccc1N(C=O)C(C)C(=O)C(=O)NCc1ccc(F)c(Cl)c1 (centres unmarked) [FP 93, N-[(3-Chloro-4-fluorophenyl)methyl]-3-[A (2-methoxyphenyl)formamido]-2-oxobutanamide]	> 6.00	> 6.00	–
O=C(NCC1CC1)C(=O)C1CCC(=O)N1Cc1ccc(F)cc1 (centres unmarked) [FP 241, N-(Cyclopropylmethyl)-2-{1-[(4-fluorophenyl)methyl]-5-oxopyrrolidin-2-yl}-2-oxoacetamide]	> 6.00	> 6.00	–
CCNC(=O)C(=O)[C@H]1CCC(=O)N1Cc1ccc(Cl)cc1 [FP 285, 2-[(2R)-1-[(4-Chlorophenyl)methyl]-5-oxopyrrolidin-2-yl]-N-ethyl-2-oxoacetamide]	> 6.00	> 6.00	–
O=C(NC1CC1)C(=O)C1CCC(=O)N1Cc1ccccc1 (centres unmarked)	> 6.00	–	5.00 to 6.00
O=C(NCC1CCCCC1)C(=O)C1CCC(=O)N1CCC1CCOCC1 (centres unmarked) [FP 245, N-(Cyclohexylmethyl)-2-{1-[2-(oxan-4-yl)ethyl]-5-oxopyrrolidin-2-yl}-2-oxoacetamide]	> 6.00	5.00 to 6.00	–
CC(NC(=O)c1ccccc1Cl)C(=O)C(=O)NCC1CC1 (centres unmarked) [FP 169, 3-[(2-Chlorophenyl)formamido]-(cyclopropylmethyl)-2-oxobutanamide]	> 6.00	5.00 to 6.00	–
CCC(NC(=O)CN1CCCCC1)C(=O)C(=O)NCC1CCCCC1 (centres unmarked) [FP 213, N-(Cyclohexylmethyl)-2-oxo-3-[2-(piperidin-1-yl)acetamido]pentanamide]	> 6.00	5.00 to 6.00	–
COc1ccccc1N(C=O)C(CC(C)C)C(=O)C(=O)NCc1cccc(Cl)c1 (centres unmarked) [FP 13, N-[(3-Chlorophenyl)methyl]-3-[N-(2-methoxyphenyl)formamido]-5-methyl-2-oxohexanamide]	> 6.00	> 6.00	–
CNC(=O)C(=O)C(C(C)C)N(C=O)Cc1ccccc1 (centres unmarked) [FP 197, 3-(N-Benzylformamido)-N,4-dimethyl-2-oxopentanamide]	> 6.00	< 5.00	–
CC(C)CNC(=O)C(=O)C(C)NC(=O)c1ccccc1 (centres unmarked) [FP 182, N-(2-Methylpropyl)-2-oxo-3-(phenylformamido)butanamide]	> 6.00	< 5.00	–
O=C(NC1CN(S(=O)(=O)C2CCCC2)C1)C(=O)[C@H]1CCC(=O)N1Cc1ccccc1 [FP 322, 2-[(2R)-1-Benzyl-5-oxopyrrolidin-2-yl]-N-[1-(cyclopentanesulfonyl)azetidin-3-yl]-2-oxoacetamide]	> 6.00	> 6.00	–
